Assay in all cases: Agar well diffusion assay, zone of inhibition
What all share (assay type): cell-based
Details in all cases: samples at 100 μl, beyond the well diameter of 6 mm, mean±S.D.
In general terms: In agar diffusion tests the substance spreads into inoculated agar from a disc or well.

Test [1] relates to Candida albicans (RCMB 05038).
The test system of test [2] is Aspergillus fumigatus (RCMB 02567). As to the method: (§1) Antimicrobial activity of the reduced graphene oxide (rGO) nanoparticles was determined using the agar well diffusion assay method as described by Holder and Boyce, 1994. Three bacterial strains (two gram positive and one gram negative) and one yeast strain, namely, Bacillis subtilis (RCMB 010067), Staphylococcus pneumoniae (RCMB 010011), Escherichia coli (RCMB 010052), and Aspergillus fumigatus (RCMB 02568) were used for the antimicrobial assay.
(§2) The tested organisms were sub-cultured on nutrient agar medium (Oxoid laboratories, UK) for bacteria and Sabouraud dextrose agar (Oxoid laboratories, UK) for fungi. Ampicillin and Gentamicin were used as positive control for gram positive and gram negative bacteria, respectively, while Amphotericin B was used for fungi. The plates were done in triplicates. Bacterial cultures were incubated at 37° C. for 24 h, while the fungal cultures were incubated at 25-30° C. for 3-7 days. Antimicrobial activity was determined by measuring the zone of inhibition [A. Agwa, (2000)]. Samples were tested at a concentration of 100 μl; Data are expressed in the form of (M±S.D.): mean±standard deviation; Diameter of the inhibition zone (mm) beyond the well diameter of 6 mm; NT: not tested; NA: no activity.

For test [3], the system named is Bacillis subtilis (RCMB 010068). As to the method: as §1, §2
For test [4], the system named is Streptococcus pneumoniae (RCMB 010011). As to the method:
as §1, §2

Test [5] deals with Escherichia coli (RCMB 010054). As to the method:
as §1, §2

Test [6] deals with Pseudomonas aeruginosa (RCMB 010045).

Take `C[C@@H]1[C@H](O)[C@@H](C)/C=C/C=C/C=C/C=C/C=C/C=C/C=C/[C@H](O[C@@H]2O[C@H](C)[C@@H](O)[C@H](N)[C@@H]2O)C[C@@H]2O[C@](O)(C[C@@H](O)C[C@@H](O)[C@H](O)CC[C@@H](O)C[C@@H](O)CC(=O)O[C@H]1C)C[C@H](O)[C@H]2C(=O)O` [Amphotericin B]: the “Diameter of the inhibition zone” value is 22.7 ± 1.5 mm in test [1] and 21.7 ± 1.5 mm in test [2].

For `CC1(C)S[C@@H]2[C@H](NC(=O)[C@H](N)c3ccccc3)C(=O)N2[C@H]1C(=O)O` [Ampicillin], the “Diameter of the inhibition zone” value in test [3] came to 31.3 ± 1.5 mm; in test [4] it was 21.0 ± 1.0 mm.

Turning to Gentamicin, the entries for the “Diameter of the inhibition zone” value in test [5] and in test [6] were 20.3 ± 0.58 mm and 16.0 ± 1.0 mm, respectively.

These data come from patent US9850133B2, “Green synthesis of reduced graphene oxide using Nigella sativa seed extract” (KING SAUD UNIVERSITY, priority 2016, dated 2017).
